Results taken from patent US9492471B2, “Methods of treating a disease or disorder associated with Bruton'S Tyrosine Kinase” (Celgene Avilomics Research, Inc., priority 2013, dated 2016).
Read-outs that look alike come from different tables or passages of the source.

Assays:
Test in all cases: HotSpot kinase profiling
Format in all cases: biochemical
[1] = target: T1, PHKg1 (Homo sapiens, UniProt Q16816)
T1 construct: purchased Reaction Biology Corp
How it was run: (§1)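 Percent inhibition, averaged when run more than once and referenced to a DMSO negative control, came from a radioactive filter-binding readout on P81 paper. Reactions of kinase with freshly made substrate and cofactors ran for 2 h at room temperature.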

[2] = target: T2, PLK1 (Homo sapiens, UniProt P53350)
T2 construct: purchased Reaction Biology Corp
How it was run: as §1

[3] = target: T3, RON/MST1R (Homo sapiens, UniProt Q04912)
T3 construct: purchased Reaction Biology Corp
How it was run: as §1

[4] = target: T4, STK22D/TSSK1 (Homo sapiens, UniProt Q9BXA7)
T4 construct: purchased Reaction Biology Corp
T4 sequence (Q9BXA7 1-367): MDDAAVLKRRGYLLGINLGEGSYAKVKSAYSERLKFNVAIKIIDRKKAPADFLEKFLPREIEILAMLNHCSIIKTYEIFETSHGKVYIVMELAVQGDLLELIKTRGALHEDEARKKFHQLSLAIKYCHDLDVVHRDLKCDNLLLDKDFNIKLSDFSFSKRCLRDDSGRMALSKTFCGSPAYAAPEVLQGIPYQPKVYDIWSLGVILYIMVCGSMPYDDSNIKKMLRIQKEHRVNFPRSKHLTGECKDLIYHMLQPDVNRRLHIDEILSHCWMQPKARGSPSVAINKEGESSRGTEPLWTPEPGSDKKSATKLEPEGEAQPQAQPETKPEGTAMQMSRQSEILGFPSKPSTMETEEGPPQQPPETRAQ
How it was run: as §1

[5] = target: T5, TEC (Homo sapiens, UniProt P42680)
T5 construct: purchased Reaction Biology Corp
T5 sequence (P42680 1-631): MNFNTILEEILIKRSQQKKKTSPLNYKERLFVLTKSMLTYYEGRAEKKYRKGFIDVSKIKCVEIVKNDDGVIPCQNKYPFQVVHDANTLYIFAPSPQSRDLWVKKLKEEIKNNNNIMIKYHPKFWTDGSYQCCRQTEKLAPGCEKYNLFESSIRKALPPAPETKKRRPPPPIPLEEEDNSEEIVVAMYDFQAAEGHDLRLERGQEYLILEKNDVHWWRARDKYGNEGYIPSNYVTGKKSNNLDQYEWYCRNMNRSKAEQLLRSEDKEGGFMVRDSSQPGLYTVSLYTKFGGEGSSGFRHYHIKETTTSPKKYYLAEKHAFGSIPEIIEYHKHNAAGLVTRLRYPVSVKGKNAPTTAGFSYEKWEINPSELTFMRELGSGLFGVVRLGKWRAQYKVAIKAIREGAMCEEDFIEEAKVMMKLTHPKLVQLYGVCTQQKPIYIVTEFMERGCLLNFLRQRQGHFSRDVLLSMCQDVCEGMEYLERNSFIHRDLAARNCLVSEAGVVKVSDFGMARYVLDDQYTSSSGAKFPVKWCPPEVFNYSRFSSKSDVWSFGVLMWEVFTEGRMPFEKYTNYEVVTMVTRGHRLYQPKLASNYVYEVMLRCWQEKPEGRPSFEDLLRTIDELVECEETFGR
How it was run: as §1

[6] = target: T6, ULK1 (Homo sapiens, UniProt O75385)
T6 construct: purchased Reaction Biology Corp
T6 sequence (O75385 1-1050): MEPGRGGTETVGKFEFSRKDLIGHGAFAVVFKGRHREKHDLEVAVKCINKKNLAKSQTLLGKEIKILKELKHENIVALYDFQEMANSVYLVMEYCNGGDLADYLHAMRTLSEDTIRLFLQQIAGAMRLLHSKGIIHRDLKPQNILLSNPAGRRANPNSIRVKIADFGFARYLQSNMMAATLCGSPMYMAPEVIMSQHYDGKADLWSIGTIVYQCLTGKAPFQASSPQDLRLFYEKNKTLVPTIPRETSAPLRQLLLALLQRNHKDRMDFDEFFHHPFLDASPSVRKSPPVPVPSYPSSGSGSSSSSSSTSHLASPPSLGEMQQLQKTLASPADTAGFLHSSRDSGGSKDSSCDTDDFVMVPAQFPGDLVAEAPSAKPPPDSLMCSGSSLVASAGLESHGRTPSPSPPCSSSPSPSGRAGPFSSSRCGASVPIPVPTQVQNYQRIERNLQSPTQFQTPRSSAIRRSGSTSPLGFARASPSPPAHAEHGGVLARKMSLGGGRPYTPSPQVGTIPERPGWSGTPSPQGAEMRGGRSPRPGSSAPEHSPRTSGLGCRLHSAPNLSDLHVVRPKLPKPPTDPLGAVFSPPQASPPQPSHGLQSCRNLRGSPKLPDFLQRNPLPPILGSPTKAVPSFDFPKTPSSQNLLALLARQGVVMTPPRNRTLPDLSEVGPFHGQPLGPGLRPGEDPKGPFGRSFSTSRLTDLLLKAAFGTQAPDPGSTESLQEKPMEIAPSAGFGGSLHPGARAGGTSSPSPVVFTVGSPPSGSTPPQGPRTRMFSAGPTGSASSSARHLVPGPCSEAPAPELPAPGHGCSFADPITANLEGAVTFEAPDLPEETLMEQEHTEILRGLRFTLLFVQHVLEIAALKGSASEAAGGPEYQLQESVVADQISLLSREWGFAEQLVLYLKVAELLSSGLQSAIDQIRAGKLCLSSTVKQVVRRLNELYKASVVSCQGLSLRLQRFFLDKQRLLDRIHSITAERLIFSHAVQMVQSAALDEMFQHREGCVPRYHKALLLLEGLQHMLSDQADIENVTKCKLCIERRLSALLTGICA
How it was run: as §1

[7] = read-out: % Enzyme Activity (relative to DMSO controls) Run 1
[8] = read-out: % Enzyme Activity (relative to DMSO controls) Run 2

T2 sequence (P53350 whole entry): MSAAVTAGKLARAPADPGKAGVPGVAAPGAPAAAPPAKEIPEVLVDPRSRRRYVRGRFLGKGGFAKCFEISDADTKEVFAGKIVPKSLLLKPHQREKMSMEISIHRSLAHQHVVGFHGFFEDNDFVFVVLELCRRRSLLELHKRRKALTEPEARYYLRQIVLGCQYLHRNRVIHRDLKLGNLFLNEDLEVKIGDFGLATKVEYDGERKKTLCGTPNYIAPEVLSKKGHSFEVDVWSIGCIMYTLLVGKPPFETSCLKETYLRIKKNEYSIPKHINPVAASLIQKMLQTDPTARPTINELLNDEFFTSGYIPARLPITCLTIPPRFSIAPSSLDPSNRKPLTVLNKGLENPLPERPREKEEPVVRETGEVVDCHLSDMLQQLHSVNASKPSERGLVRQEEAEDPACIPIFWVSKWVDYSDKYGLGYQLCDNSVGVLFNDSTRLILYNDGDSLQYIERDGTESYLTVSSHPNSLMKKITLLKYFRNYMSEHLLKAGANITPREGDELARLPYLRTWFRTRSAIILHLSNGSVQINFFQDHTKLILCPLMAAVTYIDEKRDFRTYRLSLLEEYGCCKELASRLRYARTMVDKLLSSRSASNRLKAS
T1 sequence (Q16816 whole entry): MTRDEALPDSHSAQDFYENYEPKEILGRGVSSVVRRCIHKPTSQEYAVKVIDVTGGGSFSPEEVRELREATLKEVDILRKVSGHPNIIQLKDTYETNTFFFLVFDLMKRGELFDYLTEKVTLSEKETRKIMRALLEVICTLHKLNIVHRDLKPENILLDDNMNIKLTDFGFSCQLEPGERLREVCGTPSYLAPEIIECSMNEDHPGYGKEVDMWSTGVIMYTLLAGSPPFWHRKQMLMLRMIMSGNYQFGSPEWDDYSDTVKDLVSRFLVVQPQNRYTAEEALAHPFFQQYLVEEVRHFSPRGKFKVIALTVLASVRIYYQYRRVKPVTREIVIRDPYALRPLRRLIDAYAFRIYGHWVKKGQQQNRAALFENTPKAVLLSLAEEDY
T3 sequence (Q04912 25-1400): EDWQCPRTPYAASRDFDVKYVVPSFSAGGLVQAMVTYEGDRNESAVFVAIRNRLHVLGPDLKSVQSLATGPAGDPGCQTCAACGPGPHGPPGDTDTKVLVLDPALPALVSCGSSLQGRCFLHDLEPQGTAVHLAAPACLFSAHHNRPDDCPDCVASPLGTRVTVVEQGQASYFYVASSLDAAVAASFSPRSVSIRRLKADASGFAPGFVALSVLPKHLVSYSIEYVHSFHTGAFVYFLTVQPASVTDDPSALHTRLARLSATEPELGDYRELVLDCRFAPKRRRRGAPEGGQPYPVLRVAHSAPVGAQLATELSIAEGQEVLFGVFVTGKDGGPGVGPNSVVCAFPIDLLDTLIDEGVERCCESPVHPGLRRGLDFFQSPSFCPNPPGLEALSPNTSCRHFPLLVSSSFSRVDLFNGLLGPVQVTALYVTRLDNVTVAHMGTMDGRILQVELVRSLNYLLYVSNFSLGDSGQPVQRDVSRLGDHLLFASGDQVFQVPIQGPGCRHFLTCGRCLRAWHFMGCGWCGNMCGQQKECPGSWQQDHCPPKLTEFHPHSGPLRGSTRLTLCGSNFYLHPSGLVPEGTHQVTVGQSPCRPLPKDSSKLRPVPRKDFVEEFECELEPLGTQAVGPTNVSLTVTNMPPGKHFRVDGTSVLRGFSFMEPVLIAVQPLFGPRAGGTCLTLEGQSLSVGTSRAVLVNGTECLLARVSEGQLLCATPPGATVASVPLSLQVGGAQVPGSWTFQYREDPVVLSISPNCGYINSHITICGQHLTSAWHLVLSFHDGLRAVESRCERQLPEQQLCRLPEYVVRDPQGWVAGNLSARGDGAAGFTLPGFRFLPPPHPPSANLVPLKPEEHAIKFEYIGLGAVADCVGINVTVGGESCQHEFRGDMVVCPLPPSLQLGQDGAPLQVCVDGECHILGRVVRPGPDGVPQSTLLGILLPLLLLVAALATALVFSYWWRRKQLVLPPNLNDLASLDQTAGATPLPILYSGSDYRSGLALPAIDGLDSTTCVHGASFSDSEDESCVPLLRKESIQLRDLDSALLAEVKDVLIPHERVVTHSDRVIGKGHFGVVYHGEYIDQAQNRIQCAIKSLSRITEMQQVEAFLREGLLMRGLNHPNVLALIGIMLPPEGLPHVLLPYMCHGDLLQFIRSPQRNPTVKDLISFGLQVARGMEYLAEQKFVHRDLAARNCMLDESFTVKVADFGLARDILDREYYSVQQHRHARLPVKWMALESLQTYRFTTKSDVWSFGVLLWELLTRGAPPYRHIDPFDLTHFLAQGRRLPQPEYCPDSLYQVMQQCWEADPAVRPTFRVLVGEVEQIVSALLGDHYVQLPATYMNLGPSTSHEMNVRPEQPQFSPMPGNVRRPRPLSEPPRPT

With `C=CC(=O)Nc1cccc(Nc2nc(Nc3ccc(OCCOC)c(F)c3)ncc2F)c1` [Compound 2] the inhibition at 3 µM [1] was 14.5%, the remaining activity at 3 µM [1, 7] was 85.8% and the remaining activity at 3 µM [1, 8] was 85.2%. The inhibition at 3 µM [2] was 8.06%, the remaining activity at 3 µM [2, 7] was 91.1% and the remaining activity at 3 µM [2, 8] was 92.8%. The inhibition at 3 µM [3] was -2.24%, the remaining activity at 3 µM [3, 7] was 103% and the remaining activity at 3 µM [3, 8] was 101%. It also gave an inhibition at 3 µM [4] of 11.1%, a remaining activity at 3 µM [4, 7] of 88% and a remaining activity at 3 µM [4, 8] of 89.7%. It also gave an inhibition at 3 µM [5] of 89.1%, a remaining activity at 3 µM [5, 7] of 10.4% and a remaining activity at 3 µM [5, 8] of 11.5%. For the same molecule, the inhibition at 3 µM [6] was -0.59%, the remaining activity at 3 µM [6, 7] was 100% and the remaining activity at 3 µM [6, 8] was 101%.
